From article doi:10.1101/2020.07.28.224543v1, “Diminazene resistance in Trypanosoma congolense is linked to reduced mitochondrial membrane potential and not to reduced transport capacity” (biorxiv, 2020)

Tests used:
T. congolense IL3000 = system: T1, T. congolense IL3000; assay: microbe, parasite or virus in culture; set-up: Alamar blue (resazurin) viability assay of in vitro grown trypanosomes, fluorescence read-out; settings: Trypanosoma congolense, parental strain IL3000
T1 construct: IL3000
Experimental: At the point of adaptation to 550 nM, the level of DA resistance and the extent of any cross-resistance with the diamidine drugs pentamidine and DB829, and with oxaboroles AN7973 and SCYX7158, was tested using an assay based on the viability dye Alamar blue (resazurin), in which live trypanosomes (but not dead ones) reduce blue and non-fluorescent resazurin to pink, fluorescent resorufin. This assay yields a fluorescent output that is proportional to the number of cells in the well [36]. […] Resistance to DA, as measured in this assay, was ~2.3-3-fold, and highly significant (Fig 1A for fold differences and P values, Table 1 for EC50 values). […] Importantly, there was no cross-resistance with isometamidium, nor with either of the oxaboroles tested, AN7973 and SCYX7158. To further investigate the limits of cross-resistance with other diamidines, a series of bis-benzofuran analogues were tested (Table 1). These analogues were chosen to explore the effect of variable linker length between the benzofuramidine end groups, varying inter-amidine distance as well as the flexibility of the molecule.

TbAT1 = molecular target: T2, TbAT1 (Trypanosoma brucei, UniProt Q9Y0I0); assay: inhibition of [3H]-diminazene uptake in transfected bloodstream-form trypanosomes; assay type: cell-based; settings: read-out: % inhibition at 1 mM
T2 construct: gene AT1; full-length transporter expressed in T. b. brucei bloodstream-form clone B48 (lacks native TbAT1/P2 and wild-type TbAQP2)
T2 sequence (Q9Y0I0 entry or part of it): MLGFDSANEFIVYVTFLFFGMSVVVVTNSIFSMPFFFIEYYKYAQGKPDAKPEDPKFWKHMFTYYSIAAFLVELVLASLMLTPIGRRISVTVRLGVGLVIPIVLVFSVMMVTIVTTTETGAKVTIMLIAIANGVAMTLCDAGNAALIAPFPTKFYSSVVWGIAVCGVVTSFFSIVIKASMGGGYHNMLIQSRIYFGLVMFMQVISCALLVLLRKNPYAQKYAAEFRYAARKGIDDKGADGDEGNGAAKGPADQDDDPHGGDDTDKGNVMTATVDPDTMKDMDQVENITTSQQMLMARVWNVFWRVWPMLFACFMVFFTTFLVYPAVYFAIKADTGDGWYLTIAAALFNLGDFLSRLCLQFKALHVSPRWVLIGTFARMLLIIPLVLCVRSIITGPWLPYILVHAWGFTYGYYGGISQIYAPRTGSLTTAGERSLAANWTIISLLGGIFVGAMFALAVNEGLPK

## CC1(C)OB(O)c2cc(NC(=O)c3ccc(-n4cccn4)cc3Cl)ccc21 [AN7973]
T. congolense IL3000; first series
  EC50: 0.12 µM

## Nc1ncnc2c1ncn2[C@@H]1O[C@H](CO)[C@@H](O)[C@H]1O [Ado, adenosine]
TbAT1
  inhibition at 1000 µM: 100%

## N=C(N)c1ccc(N=NNc2ccc(C(=N)N)cc2)cc1 [DA, diminazene aceturate]
T. congolense IL3000; first series
  EC50: 0.27 µM
T. congolense IL3000; second series
  EC50: 0.33 µM

## CC[n+]1c(-c2ccccc2)c2cc(N/N=N/c3cccc(C(=N)N)c3)ccc2c2ccc(N)cc21 [Isometamidium]
T. congolense IL3000; first series
  EC50: 0.0098 µM

## N=C(N)c1ccc(OCCCCCOc2ccc(C(=N)N)cc2)cc1 [Pentamidine]
T. congolense IL3000; first series
  EC50: 1.01 µM

## CC1(C)OB(O)c2cc(NC(=O)c3ccc(F)cc3C(F)(F)F)ccc21 [SCYX-7158]
T. congolense IL3000; first series
  EC50: 0.52 µM
